This note sets out measurements from BindingDB's records for PubMed 38701715 (Shaanxi University of Chinese Medicine).

This assay in a line: Inhibition of ACAT2 (unknown origin).

The term IC50 denotes the concentration that inhibits the measured activity by half. A high value points to weaker potency in that assay.

Turning to `COc1ccc([C@@H]2O[C@H](c3ccc(OC(C)C(O)c4ccc5c(c4)COC5)c(OC)c3)[C@H](C)[C@@H]2C)cc1OC` (stereo partly specified), half-maximal inhibition (IC50) required 124 µM.
